Our source for the IC50 values is BindingDB's records for patent US20250368640 (Biofront, 2025).

Each structure is given as a SMILES string.

Test [1] addresses Mitogen-activated protein kinase kinase kinase kinase 1 (Homo sapiens, UniProt Q92918). Description: HPK1 Enzyme Inhibition Assay. As for the experimental part:
The compound was dissolved in 100% DMSO at the concentration of 10 mM. The HPK1 protein was purchased from Signal Chem (M23-11G-10). 2.5 μL per well of 2×HPK1 protein was added to assay plate containing the test compound, centrifuged at 1500 rpm for 1 minute, and then incubated at 25° C. for 60 minutes. MBP protein was purchased from Signal Chem (M42-51N) and ATP was purchased from Promega (V9102). The two were added 2.5 μL per well mixture of 2×MBP (0.2 ug/ul) and ATP (20 μM), centrifuged at 1500 rpm for 1 minute, then incubated at 25° C. for 60 minutes. Then added 5 μL of ADP-Glo from Promega (V9102) to the assay plate and depleted the unconsumed ATP for 60 minutes. Then centrifuged at 1500 rpm for 1 minute and incubated at 25° C. for 60 minutes. Finally, 10 μL of the kinase assay reagent from Promega (V9102) was added to the assay plate to convert ADP to ATP, centrifuged at 1500 rpm for 1 minute, incubate at 25° C. for 40 minutes. After 40 minutes incubation, the […] was determined.

Test [2] concerns the target T1, Aurora kinase A (Homo sapiens, UniProt O14965).
T1 sequence (O14965 whole entry): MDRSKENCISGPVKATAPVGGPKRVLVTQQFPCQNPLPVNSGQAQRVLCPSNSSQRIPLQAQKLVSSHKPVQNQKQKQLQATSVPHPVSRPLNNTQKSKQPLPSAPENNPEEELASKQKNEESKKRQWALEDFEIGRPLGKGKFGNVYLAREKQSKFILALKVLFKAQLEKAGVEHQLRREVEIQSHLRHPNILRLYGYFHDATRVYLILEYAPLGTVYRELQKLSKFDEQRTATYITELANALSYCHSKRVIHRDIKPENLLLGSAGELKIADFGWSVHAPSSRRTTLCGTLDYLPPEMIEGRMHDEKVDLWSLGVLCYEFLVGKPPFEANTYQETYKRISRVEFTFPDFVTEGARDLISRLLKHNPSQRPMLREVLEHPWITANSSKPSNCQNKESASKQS
Description: Aurora A Enzyme Inhibition Assay. As for the experimental part:
The compound was dissolved in 100% DMSO at the concentration of 10 mM. The Aurora A protein was purchased from Carna (05-101). 10 μL per well of 2.5×Aurora A protein was added to assay plate containing the test compound, centrifuged at 1000 rpm for 1 minute, and then incubated at 25° C. for 10 minutes. Peptide 21 was purchased from GL Biochem (116370) and ATP was purchased from Promega (V9102). The two were added 15 μL per well mixture of 1.67× peptide 21 (final conc. is 3 μM) and ATP (final conc. is 14.58 μM), centrifuged at 1000 rpm for 1 minute, then incubated at 25° C. for 40 minutes. Then added 30 μL of stop buffer (100 mM HEPES pH7.5, 0.015% Brij-35, 0.2% Coating Reagent 3, 50 mM EDTA) to the assay plate and centrifuged at 1000 rpm for 1 minute. the product was determined.

Sequence of Mitogen-activated protein kinase kinase kinase kinase 1 (Q92918 whole entry): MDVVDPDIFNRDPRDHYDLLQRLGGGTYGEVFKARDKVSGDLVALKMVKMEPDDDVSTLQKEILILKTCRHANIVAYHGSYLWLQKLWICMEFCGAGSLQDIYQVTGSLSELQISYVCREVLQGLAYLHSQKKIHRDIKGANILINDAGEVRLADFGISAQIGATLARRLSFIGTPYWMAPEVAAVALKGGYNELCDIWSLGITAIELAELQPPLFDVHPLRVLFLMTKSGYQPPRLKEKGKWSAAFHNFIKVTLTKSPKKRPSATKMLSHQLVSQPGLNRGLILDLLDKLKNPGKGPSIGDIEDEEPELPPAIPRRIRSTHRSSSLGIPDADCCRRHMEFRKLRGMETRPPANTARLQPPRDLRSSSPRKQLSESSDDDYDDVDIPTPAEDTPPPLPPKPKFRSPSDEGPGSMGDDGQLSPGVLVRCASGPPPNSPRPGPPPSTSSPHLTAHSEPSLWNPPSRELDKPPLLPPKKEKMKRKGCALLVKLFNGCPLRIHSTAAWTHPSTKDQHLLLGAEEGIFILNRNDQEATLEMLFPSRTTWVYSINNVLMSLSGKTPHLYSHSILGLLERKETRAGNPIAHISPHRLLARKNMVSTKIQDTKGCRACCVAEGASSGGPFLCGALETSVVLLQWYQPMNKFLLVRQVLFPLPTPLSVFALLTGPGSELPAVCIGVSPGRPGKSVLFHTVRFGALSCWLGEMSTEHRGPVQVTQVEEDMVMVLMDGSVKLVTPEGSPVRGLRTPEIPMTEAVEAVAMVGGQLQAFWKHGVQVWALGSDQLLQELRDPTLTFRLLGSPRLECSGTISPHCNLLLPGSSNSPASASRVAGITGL

As for `CCc1c[nH]c2ncc(-c3cccc(N4CCCN(CCN5CC(c6ccc7c(c6)C(=O)N(C6CCC(=O)NC6=O)C7)C5)C4=O)c3)c(Cl)c12` (centres undefined) [US20250368640, Example 1], the IC50 in test [1] was determined as 0.76 nM; in test [2], 14.3 nM.

On to `CCc1c[nH]c2ncc(-c3cccc(N4CCCN(CCN5CC(c6ccc7c(c6)CN(C6CCC(=O)NC6=O)C7=O)C5)C4=O)c3)c(Cl)c12` (centres undefined), for which the IC50 in test [1] turned out to be 1.1 nM; in test [2], 10.1 nM.
